Here are results for four compounds from patent US6919362B2, “Heterocyclic derivatives, preparation method and pharmaceutical compositions containing same” (Les Laboratoires Servier, priority 2000, dated 2005).

One series relates to ob/ob mouse. In words: Antidiabetic and hypolipidaemic effect in the ob/ob mouse. The series is classed as in vivo. As to conditions: for reduction of glycaemia: glycaemia 24 hours after the final administration. From the text: Mutations in laboratory animals and also different sensitivities to dietary regimens have allowed the development of animal models having non-insulin dependent diabetes and hyperlipidaemia associated with obesity and with resistance to insulin.
Genetic mice models (ob/ob) (Diabetes, 1982, 31 (1), 1-6) and Zucker (fa/fa) rats have been developed by various laboratories in order to understand the physiopathology of those diseases and test the effectiveness of new antidiabetic compounds (Diabetes, 1983, 32, 830-838).
The 10-week-old female ob/ob mouse (Harlan) is used for the in vivo tests. The animals are kept in a light-darkness cycle of 12 hours at 25° C. The mouse has a basal hyperglycaemia of 2 g/l. The animals are randomly selected in terms of their glycaemia to form groups of six. The compounds tested by the intraperitoneal route are dissolved in a mixture of dimethyl sulphoxide (10%) and solutol (15%) to be administered at 10 mg/kg in a volume of 2.5 ml/kg twice per day for four days. By the per os route, the compounds are tested at 30 mg/kg administered in a volume of 2.5 ml/kg of 1%, HEC twice per day for four days. The control groups receive the solvents under the same conditions as the treated groups. The activity of the products is evaluated by measuring glycaemia 24 hours after the final administration and by measuring body weight daily.

Regarding `COC(=O)C(Cc1ccc(OCCn2c(=O)sc3cc(C(=O)c4ccccc4)ccc32)cc1)C(=O)OC` [Example 18, Dimethyl 2-{4-[2-(6-benzoyl-2-oxo-1,3-benzothiazol-3(2H)-yl)-ethoxy]benzyl}malonate], the reduction of glycaemia in the series on ob/ob mouse (10 mg/kg i.p. twice per day for four days) was 45%; in the series with ob/ob mouse (30 mg/kg per os twice per day for four days), 43%.

Regarding `COC(=O)C(=Cc1ccc(OCCn2c(=O)sc3cc(NC(=O)c4ccccc4)ccc32)cc1)C(=O)OC` [Example 76, Dimethyl 2-{4-[2-(6-(benzoylamino)-2-oxo-1,3-benzothiazol-3(2H)-yl)ethoxy]benzylidene}malonate], the melting point – broadly, the temperature of the solid-liquid transition – lay in the range of 186 to 190 °C.

In the case of `COC(=O)C(=Cc1ccc(OCCn2c(=O)sc3cc(C(=O)Nc4ccccc4)ccc32)cc1)C(=O)OC` [Example 84, Dimethyl 2-{4-[2-(6-(anilinocarbonyl)-2-oxo-1,3-benzothiazol-3(2H)-yl)ethoxy]benzylidene}malonate], the melting point lay within 102 to 105 °C.

As for `CN(CCOc1ccc(CC2SC(=O)NC2=O)cc1)c1ccccn1` (centres unmarked) [rosiglitazone, reference compound], the “variation in body weight” value in the series on ob/ob mouse (ob/ob mouse, in four days, body weight measured daily) is reported as “+4%”.
